From publication PMC10547674, “Bioactive metabolites identified from Aspergillus terreus derived from soil” (AMB Express, 2023)
Converted amounts (≈) assume the structure as drawn. Like-named read-outs stand apart in the source and are kept apart here.

Legend:
[1] = system: Candida albicans ATCC 10231; assay: Agar disc diffusion; settings: disc loaded with about 0.01mg; for zone of inhibition at 10 µg/disc: Candida albicans, ATCC10231, C. albicans; for Zone of inhibition: C. albicans
Protocol: (§8) Staphylococcus aureus ATCC 6538, Escherichia coli ATCC 25922, Candida albicans ATCC 10231and Aspergillus niger NRRL-A326 were supplied from Culture Collection Center. The antimicrobial activity of A. terreus extract and 1–4 was investigated by the agar disc diffusion method (Abdel-Wareth et al. [2019]). Nutrient agar (bacteria and yeast) and PDA (fungi) plates were seeded with 0.1 mL of 10^5–10^6 cells/mL then the filter paper discs (0.5 cm) were loaded with about 0.01mg from the extract and compounds, and put on the inoculated agar or PDA plates surface and stayed for 2–4 h at 4°C to reach maximum diffusion. After that, incubation of the plate at 30°C for 24 and 48 h for bacteria and fungi, respectively, to permit maximum growth then the inhibition zone diameter was measured in millimeters (mm). Experiments were carried out in triplicate.

[2] = system: Aspergillus niger NRRL-A326; assay: Agar disc diffusion; settings: for zone of inhibition at 10 µg/disc: Aspergillus niger, NRRLA326; for Zone of inhibition: A. niger, disc loaded with about 0.01mg
Protocol: as §8

[3] = system: TNF-α; assay: RT-PCR, TNF-α mRNA expression in LPS-stimulated RAW 264.7 cells; format: cell-based, Murine; settings: LPS-induced RAW 264.7, compared to LPS control
Protocol: (§1) RAW 264.7 cells (1.8 × 10^5 cells/mL) were seeded for 18 h in a 24-well plate having DMEM medium (1 mL). […] Then, LPS (Sigma-Aldrich Cat No: L2630) (500 ng/mL, LPS control) was added to all treated and untreated wells to induce the inflammatory process. After incubation for 24 h, the media were taken and frozen till analysis. The untreated wells represented the LPS control group.
(§2) RAW 264.7 cells were washed two times and then harvested in PBS (1 mL). Total RNA from the stimulated RAW 264.7 cells was extracted utilizing Qiagen RNA extraction (Qiagen, MD, USA) following the instructions of the procedure. cDNA was synthesized by iScript cDNA synthesis kit (Bio-Rad Laboratories Pty. Ltd, Gladesville, Australia). Rotorgene RT-PCR system (QIAGEN, Germany) was used for PCR amplification using BioRad cyber green PCR MMX (Bio-Rad Laboratories Pty. Ltd, Gladesville, Australia). The primers used for the amplification of IL-6, TNF-α, and β-actin genes are represented in Additional file 1: Table S4.
(§3) The Formula 2^−(ΔΔCt) was used to calculate the relative fold change between samples and control.

[4] = system: Escherichia coli ATCC 25922; assay: Agar disc diffusion; settings: for zone of inhibition at 10 µg/disc: Escherichia coli, ATCC25922; for Zone of inhibition: E. coli, disc loaded with about 0.01mg
Protocol: as §8

[5] = system: IL-6; assay: LPS-induced inflammatory model, IL-6 level by ELISA; format: cell-based, Murine; settings: LPS (500 ng/mL)-induced RAW 264.7, sample at ¼ IC50, ELISA of medium; LPS control 227.50 ± 29.2
Protocol: (§4) Murine macrophage cells (RAW 264.7), supplied by American Type Culture Collection (ATCC), were grown on Dulbecco′s Modified Eagle Medium (DMEM), accompanied with 10%, […] and 100 μg/mL from bovine serum, penicillin, and streptomycin respectively. After that, cells were incubated in a CO2 atmosphere (5%, 37 °C) then they sub-cultured every 2 days and the cells of the exponential phase were used all over the procedure.
as §1
(§5) TNF- α quantitative assay ELISA kit (Abcam, ab181421 Human TNF alpha Simple Step) and Il-6 quantitative assay ELISA kit (Abcam, Ab178013 Human IL-6 Simple Step) were used to quantify IL-6 and TNF- α levels in the cell culture medium following the manufacturer′s instructions (Afshari et al. [2005]).

[6] = system: TNF-α; assay: LPS-induced inflammatory model, TNF-α level by ELISA; format: cell-based, Murine; settings: LPS (500 ng/mL)-induced RAW 264.7, sample at ¼ IC50, ELISA of medium; LPS control 452.5 0 ± 46.1
Protocol: as §4, §1, §5

[7] = molecular target: ACE2/Spike (RBD) protein interaction (Homo sapiens, UniProt Q9BYF1); assay: ACE2: SARS-CoV-2 spike inhibitor screening colorimetric assay; format: binding
[8] = MTT cell viability; format: cell-based, Murine; settings: mouse, RAW 264.7 cells
Protocol: as §4
(§6) In vitro cytotoxicity assay kit MTT-based was purchased from Sigma- Aldrich, MTT cat No: M-5655, MTT solubilization solution: M-8910). RAW 264.7 cells (10,000/well) were plated in a 96-well plate then the test compounds (1–4) and the extract were diluted by a serial dilution technique (1000–4 μg/mL) were introduced and the plate was placed in a CO2 incubator (37 °C for 24 h). The cells were washed by DMEM and incubated with MTT solution (40 μL, 4 h). DMSO (180 μL) was used to solubilize the crystals of formazan and the produced color was measured at λ570 nm. The results were normalized against the control and the cell viability percentage was estimated as follows: %Cell viability=(Absorbance of sample/Absorbance of control)x100.

[9] = system: Staphylococcus aureus ATCC 6538; assay: Agar disc diffusion; settings: disc loaded with about 0.01mg; for zone of inhibition at 10 µg/disc: Staphylococcus aureus, ATCC6538, S. aureus; for Zone of inhibition: S. aureus
Protocol: as §8

[10] = system: C. albicans; assay: MIC and MBC, resazurin microplate dilution; format: cell-based, Candida albicans
Protocol: (§7) The tested strains were cultivated in 100 mL bottles at 35 °C for 24 h on Mueller Hinton medium (Sigma-Aldrich, Germany). Bacteria and fungi cells (pellet) were collected by centrifugation at 5000 rpm, 4 °C, and under aseptic conditions, then washed with sterile saline till the supernatant became clear. […] Duplicate plates were prepared and incubated (37 °C, 18-24 h). The lowest concentration at which the color is changed is the MIC data, while MBC has been calculated by streaking two concentrations higher than MIC showing no growth ([…] et al. [2007]).

[11] = system: S. aureus; assay: MIC and MBC, resazurin microplate dilution; format: cell-based, Staphylococcus aureus
Protocol: as §7

[12] = system: IL-6; assay: RT-PCR, IL-6 mRNA expression in LPS-stimulated RAW 264.7 cells; format: cell-based, Murine; settings: LPS-induced RAW 264.7, compared to LPS control
Protocol: as §1, §2, §3

[13] = system: RAW 264.7 cells; assay: MTT cell viability; format: cell-based, Murine; settings: 24 h
Protocol: as §4, §6

[14] = RAW 264.7 macrophage cells, read-out: IC50 mean ± SD (cytotoxic effect)
[15] = RAW 264.7 macrophage cells, value given in µM, read-out: IC50 (cytotoxic effect) (converted)
[16] = read-out: IC50 mean ± SD (cytotoxic effect)
[17] = value given in µM, read-out: IC50 (cytotoxic effect) (converted)

Chain of ACE2/Spike (RBD) protein interaction (Q9BYF1 18-740): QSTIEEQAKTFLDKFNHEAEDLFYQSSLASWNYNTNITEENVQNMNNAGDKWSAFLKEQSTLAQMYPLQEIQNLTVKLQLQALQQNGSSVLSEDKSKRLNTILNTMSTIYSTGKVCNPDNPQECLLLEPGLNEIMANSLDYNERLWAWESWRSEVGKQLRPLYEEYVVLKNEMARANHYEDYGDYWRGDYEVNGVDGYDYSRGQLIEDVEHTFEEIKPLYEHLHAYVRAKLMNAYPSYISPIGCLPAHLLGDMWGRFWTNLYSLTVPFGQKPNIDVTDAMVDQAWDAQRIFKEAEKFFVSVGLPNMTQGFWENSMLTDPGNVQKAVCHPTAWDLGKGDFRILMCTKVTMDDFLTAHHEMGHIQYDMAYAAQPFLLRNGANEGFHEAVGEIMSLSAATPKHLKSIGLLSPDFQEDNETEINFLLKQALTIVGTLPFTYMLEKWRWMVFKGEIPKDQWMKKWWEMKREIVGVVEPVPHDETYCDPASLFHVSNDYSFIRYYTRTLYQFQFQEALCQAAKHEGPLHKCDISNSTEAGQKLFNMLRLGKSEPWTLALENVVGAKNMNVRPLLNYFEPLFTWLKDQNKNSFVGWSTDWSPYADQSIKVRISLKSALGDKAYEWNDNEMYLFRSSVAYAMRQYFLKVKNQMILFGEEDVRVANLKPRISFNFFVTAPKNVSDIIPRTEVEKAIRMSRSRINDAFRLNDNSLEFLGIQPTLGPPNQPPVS

Compound | zone of inhibition at 10 µg/disc [1] [mm] | zone of inhibition at 10 µg/disc [2] [mm] | zone of inhibition at 10 µg/disc [4] [mm] | IL-6, mean ± SD [5] [pg/mL] | TNF-α mean ± SD [6] [pg/mL] | IC50 ([7]; tested 5–50 µg/mL, triplicates) [µM] | IC50 ([7]; value given in µM) [µM] | IC50 at 24 h [8, 14] [µg/mL] | IC50 at 24 h [8, 15] [µM] | zone of inhibition at 10 µg/disc [9] [mm] | Zone of inhibition [1] [mm] | IC50 mean ± SD (cytotoxic effect) [13] [µg/mL] | IC50 at 24 h [8, 16] [µg/mL] | IC50 at 24 h [8, 17] [µM] | Zone of inhibition [9] [mm] | Zone of inhibition [2] [mm] | Zone of inhibition [4] [mm] | further results
CCC/C=C\C/C=C\CCCCC(=O)OCC(COC(=O)CCCC/C=C\C/C=C\CCC)OC(=O)CCCC/C=C\CCCCC [Compound 1, 1,3-di-(6Z,9Z)-trideca-6,9-dienoyl-2-(6Z) dodec-6-enoyl glycerol] | 0 | 0 | 0 | 51.63 ± 2.79 | 68.220 ± 3.09 | 16 | 15.8 | 858 | 1290 | 0 | – | – | – | – | – | – | – | expression of TNF-α mRNA [3]: most activity
COC(=O)[C@]1(Cc2ccc(O)c(CC=C(C)C)c2)OC(=O)C(O)=C1c1ccc(O)cc1 [Compound 2, butyrolactone I] | 11 to 22 | 0 | 0 | 37.25 ± 0.87 | 87.97 ± 6.7 | 29.4 | 29.5 | – | – | 19 to 25 | 11 | 718.7 ± 40.4 (≈ 1690 µM) | 718 | 1690 | 19 | – | – | MBC ([10]; Candida albicans): 250 µg/mL (≈ 589 µM); MIC ([10]; Candida albicans): 250 µg/mL (≈ 589 µM); MBC ([11]; Staphylococcus aureus): 250 µg/mL (≈ 589 µM); MIC ([11]; Staphylococcus aureus): 250 µg/mL (≈ 589 µM); expression of IL-6 mRNA [12]: best inhibitory activity
COC(=O)[C@]1(Cc2ccc(O)c(CC3OC3(C)C)c2)OC(=O)C(O)=C1c1ccc(O)cc1 (stereo partly shown) [Compound 3, butyrolactone III] | 0 | 0 | 0 | – | – | 21.6 | 21.6 | – | – | 0 | – | 246.8 ± 13.9 (≈ 560 µM) | 246 | 561 | – | – | – | –
CSC(O)(N1C(=O)CNC(=O)C1Cc1c[nH]c2ccccc12)N1C(=O)CC(=O)N2C(=O)c3cc(O)ccc3CC21 (stereo not shown) [Compound 4, asterrine] | 11 to 22 | 0 | 0 | 129.00 ± 1.77 | 268.30 ± 3.43 | 15.1 | 15.1 | 449 ± 25.2 | 797 | 19 to 25 | 15 | – | – | – | 25 | – | – | MIC ([10]; C. albicans): 250 µg/mL (≈ 444 µM); MBC ([10]; Candida albicans, C. albicans, read-out: MBC): 500 µg/mL (≈ 887 µM); MIC ([10]; Candida albicans, C. albicans, read-out: MIC): 250 µg/mL (≈ 444 µM); MBC ([11]; S. aureus): 250 µg/mL (≈ 444 µM); MBC ([11]; Staphylococcus aureus, S. aureus, read-out: MBC): 250 µg/mL (≈ 444 µM); MIC ([11]; Staphylococcus aureus, S. aureus, read-out: MIC): 125 µg/mL (≈ 222 µM)
C[C@@H]1C[C@@H]([C@H](O)CC2CC(=O)NC(=O)C2)C(=O)[C@@H](C)C1 [Cyclohexamide, reference compound] | – | – | – | – | – | – | – | – | – | – | 0 | – | – | – | 0 | 29 | 0 | –
Neomycin [reference compound] | – | – | – | – | – | – | – | – | – | – | 23 | – | – | – | 21 | 0 | 8 | –
